Values after ≈ are worked out from the molar mass of the structure shown.
Tests used:
U937 cells = test: Cellular assay in U937 cells to measure the activity of RIPK1-inhibitors on cell death (necroptosis); assay type: cell-based; settings: Homo sapiens, U-937, 50 μM zVAD.fmk and 100 ng/ml recombinant human TNFα, overnight (18 to 24 hrs), MTS readout
physchem = settings: 50 mM phosphate buffer, 25 °C, pH 7.4, aqueous buffer, thermodynamic from solid

| SMILES | solubility at 16 h (physchem) | IC50 (U937 cells) |
| --- | --- | --- |
| O=C1CCCN1c1ccnc(N2CC[C@@H](C(=O)N3OCC[C@H]3c3cnccn3)C3(CC3)C2)n1 [Example 100, 1-[2-[(8R)-8-[(3S)-3-pyrazin-2-yl-1,2-oxazolidine-2-carbonyl]-5-azaspiro[2.5]octan-5-yl]pyrimidin-4-yl]pyrrolidin-2-one] | 269 µM (≈ 121 µg/mL) | 12 nM |
| Cc1cncc([C@@H]2CCON2C(=O)C2CCN(c3ncc(F)c(N4CCC5(CC5)C4=O)n3)CC2)c1 [Example 103, 5-[5-fluoro-2-[4-[(3S)-3-(5-methylpyridin-3-yl)-1,2-oxazolidine-2-carbonyl]piperidin-1-yl]pyrimidin-4-yl]-5-azaspiro[2.4]heptan-4-one] | > 1040 µM | 6 nM |
| O=C(C1CCN(c2ncc(F)c(N3CCC4(CC4)C3=O)n2)CC1)N1OCC[C@H]1c1cncc(F)c1 [Example 104, 5-[5-fluoro-2-[4-[(3S)-3-(5-fluoropyridin-3-yl)-1,2-oxazolidine-2-carbonyl]piperidin-1-yl]pyrimidin-4-yl]-5-azaspiro[2.4]heptan-4-one] | > 1030 µM | 2 nM |

Second part, led by results:

| solubility at 16 h (physchem) | SMILES | IC50 (U937 cells) |
| --- | --- | --- |
| > 1170 µM | Cc1nc([C@@H]2CCON2C(=O)C2CCN(c3nccc(N4CCCC4=O)n3)CC2)co1 [Example 95, 1-[2-[4-[(3S)-3-(2-methyl-1,3-oxazol-4-yl)-1,2-oxazolidine-2-carbonyl]piperidin-1-yl]pyrimidin-4-yl]pyrrolidin-2-one] | 26 nM |
| > 1030 µM | CO[C@@H]1CCCN(c2ccnc(N3CCC(C(=O)N4OCC[C@H]4c4cncc(F)c4)CC3)n2)C1=O [Example 96, (3R)-1-[2-[4-[(3S)-3-(5-fluoropyridin-3-yl)-1,2-oxazolidine-2-carbonyl]piperidin-1-yl]pyrimidin-4-yl]-3-methoxypiperidin-2-one] | 149 nM |
| > 1030 µM | CO[C@H]1CCCN(c2ccnc(N3CCC(C(=O)N4OCC[C@H]4c4cncc(F)c4)CC3)n2)C1=O [Example 97, (3S)-1-[2-[4-[(3S)-3-(5-fluoropyridin-3-yl)-1,2-oxazolidine-2-carbonyl]piperidin-1-yl]pyrimidin-4-yl]-3-methoxypiperidin-2-one] | 86 nM |
| > 1070 µM | Cc1ncc([C@@H]2CCON2C(=O)C2CCN(c3nccc(-c4cc(N)nn4C)n3)CC2)cc1F [Example 102, [1-[4-(5-amino-2-methylpyrazol-3-yl)pyrimidin-2-yl]piperidin-4-yl]-[(3S)-3-(5-fluoro-6-methylpyridin-3-yl)-1,2-oxazolidin-2-yl]methanone] | 1 nM |

— patent publication US20260234136A1, “ISOXAZOLIDINES AS RIPK1 INHIBITORS AND USE THEREOF” (GENZYME CORPORATION, priority 2023, published 2026)
